Measured values reported in the CheMixHub viscosity set.
Values joined by “and” are separate entries in the source; they are usually repeats but may differ in a detail not shown here. Equal entries are not always repeated.

Assay: xn = mol fraction of the nth substance listed

C1CCOC1 + Cc1ccccc1
303.15 K, 101.33 kPa
Conditions | viscosity [mPa·s]
x1 = 0.1014 | 0.52
x1 = 0.1984 | 0.518
x1 = 0.3066 | 0.512
x1 = 0.3662 | 0.51
x1 = 0.4984 | 0.499
x1 = 0.5997 | 0.489
x1 = 0.702 | 0.479
x1 = 0.7981 | 0.467
x1 = 0.8997 | 0.453

CC(C)=O + Cc1ccccc1
Conditions | viscosity
293.15 K, 101.32 kPa, x2 = 0.072 | 0.3349 mPa·s
293.15 K, 101.32 kPa, x2 = 0.148 | 0.3525 mPa·s
293.15 K, 101.32 kPa, x2 = 0.229 | 0.374 mPa·s
293.15 K, 101.32 kPa, x2 = 0.317 | 0.3966 mPa·s
293.15 K, 101.32 kPa, x2 = 0.409 | 0.42 mPa·s
293.15 K, 101.32 kPa, x2 = 0.509 | 0.4506 mPa·s
293.15 K, 101.32 kPa, x2 = 0.617 | 0.4775 mPa·s
293.15 K, 101.32 kPa, x2 = 0.735 | 0.5095 mPa·s
293.15 K, 101.32 kPa, x2 = 0.862 | 0.5472 mPa·s
298.15 K, 101 kPa, x1 = 0.0233 | 0.548 mPa·s
298.15 K, 101 kPa, x1 = 0.0652 | 0.537 mPa·s
298.15 K, 101 kPa, x1 = 0.1349 | 0.518 mPa·s
298.15 K, 101 kPa, x1 = 0.2009 | 0.499 mPa·s
298.15 K, 101 kPa, x1 = 0.301 | 0.475 mPa·s
298.15 K, 101 kPa, x1 = 0.3387 | 0.465 mPa·s
298.15 K, 101 kPa, x1 = 0.412 | 0.445 mPa·s
298.15 K, 101 kPa, x1 = 0.5133 | 0.419 mPa·s
298.15 K, 101 kPa, x1 = 0.515 | 0.418 mPa·s
298.15 K, 101 kPa, x1 = 0.6017 | 0.396 mPa·s
298.15 K, 101 kPa, x1 = 0.6968 | 0.372 mPa·s
298.15 K, 101 kPa, x1 = 0.7979 | 0.349 mPa·s
298.15 K, 101 kPa, x1 = 0.8969 | 0.325 mPa·s
298.15 K, 101 kPa, x2 = 0.0702 | 0.3418 mPa·s and 0.3418 mPa·s
298.15 K, 101 kPa, x2 = 0.1468 | 0.3759 mPa·s and 0.3759 mPa·s
298.15 K, 101 kPa, x2 = 0.2269 | 0.4076 mPa·s and 0.4076 mPa·s
298.15 K, 101 kPa, x2 = 0.3135 | 0.4383 mPa·s and 0.4383 mPa·s
298.15 K, 101 kPa, x2 = 0.4051 | 0.4662 mPa·s and 0.4662 mPa·s
298.15 K, 101 kPa, x2 = 0.5072 | 0.4893 mPa·s and 0.4893 mPa·s
298.15 K, 101 kPa, x2 = 0.616 | 0.5092 mPa·s and 0.5092 mPa·s
298.15 K, 101 kPa, x2 = 0.7355 | 0.5293 mPa·s and 0.5293 mPa·s
298.15 K, 101 kPa, x2 = 0.8629 | 0.5462 mPa·s and 0.5462 mPa·s
298.15 K, 101.32 kPa, x2 = 0.073 | 0.3172 mPa·s
298.15 K, 101.32 kPa, x2 = 0.148 | 0.3344 mPa·s
298.15 K, 101.32 kPa, x2 = 0.229 | 0.353 mPa·s
298.15 K, 101.32 kPa, x2 = 0.317 | 0.3764 mPa·s
298.15 K, 101.32 kPa, x2 = 0.41 | 0.3994 mPa·s
298.15 K, 101.32 kPa, x2 = 0.509 | 0.4236 mPa·s
298.15 K, 101.32 kPa, x2 = 0.618 | 0.4521 mPa·s
298.15 K, 101.32 kPa, x2 = 0.735 | 0.4807 mPa·s
298.15 K, 101.32 kPa, x2 = 0.862 | 0.5138 mPa·s
303.15 K, 101 kPa, x2 = 0.0702 | 0.3218 mPa·s and 0.3218 mPa·s
303.15 K, 101 kPa, x2 = 0.0929 | 0.3192 mPa·s
303.15 K, 101 kPa, x2 = 0.1468 | 0.3527 mPa·s and 0.3527 mPa·s
303.15 K, 101 kPa, x2 = 0.2269 | 0.381 mPa·s and 0.381 mPa·s
303.15 K, 101 kPa, x2 = 0.3135 | 0.4098 mPa·s and 0.4098 mPa·s
303.15 K, 101 kPa, x2 = 0.3674 | 0.4169 mPa·s
303.15 K, 101 kPa, x2 = 0.4051 | 0.4358 mPa·s and 0.4358 mPa·s
303.15 K, 101 kPa, x2 = 0.5072 | 0.4553 mPa·s and 0.4553 mPa·s
303.15 K, 101 kPa, x2 = 0.616 | 0.475 mPa·s and 0.475 mPa·s
303.15 K, 101 kPa, x2 = 0.7355 | 0.4947 mPa·s and 0.4947 mPa·s
303.15 K, 101 kPa, x2 = 0.8102 | 0.4984 mPa·s
303.15 K, 101 kPa, x2 = 0.8629 | 0.5144 mPa·s and 0.5144 mPa·s
308.15 K, 101 kPa, x2 = 0.0702 | 0.3021 mPa·s and 0.3021 mPa·s
308.15 K, 101 kPa, x2 = 0.1468 | 0.3267 mPa·s and 0.3267 mPa·s
308.15 K, 101 kPa, x2 = 0.2269 | 0.3517 mPa·s and 0.3517 mPa·s
308.15 K, 101 kPa, x2 = 0.3135 | 0.3785 mPa·s and 0.3785 mPa·s
308.15 K, 101 kPa, x2 = 0.4051 | 0.404 mPa·s and 0.404 mPa·s
308.15 K, 101 kPa, x2 = 0.5072 | 0.425 mPa·s and 0.425 mPa·s
308.15 K, 101 kPa, x2 = 0.616 | 0.4443 mPa·s and 0.4443 mPa·s
308.15 K, 101 kPa, x2 = 0.7355 | 0.4638 mPa·s and 0.4638 mPa·s
308.15 K, 101 kPa, x2 = 0.8629 | 0.4848 mPa·s and 0.4848 mPa·s
308.15 K, 101.32 kPa, x2 = 0.073 | 0.2891 mPa·s
308.15 K, 101.32 kPa, x2 = 0.149 | 0.3036 mPa·s
308.15 K, 101.32 kPa, x2 = 0.23 | 0.3204 mPa·s
308.15 K, 101.32 kPa, x2 = 0.318 | 0.3407 mPa·s
308.15 K, 101.32 kPa, x2 = 0.411 | 0.3615 mPa·s
308.15 K, 101.32 kPa, x2 = 0.51 | 0.3829 mPa·s
308.15 K, 101.32 kPa, x2 = 0.619 | 0.4072 mPa·s
308.15 K, 101.32 kPa, x2 = 0.736 | 0.4335 mPa·s
308.15 K, 101.32 kPa, x2 = 0.862 | 0.463 mPa·s
313.15 K, 101 kPa, x2 = 0.0929 | 0.2858 mPa·s
313.15 K, 101 kPa, x2 = 0.3674 | 0.3952 mPa·s
313.15 K, 101 kPa, x2 = 0.8102 | 0.4622 mPa·s
318.15 K, 101.32 kPa, x2 = 0.073 | 0.2628 mPa·s
318.15 K, 101.32 kPa, x2 = 0.149 | 0.2767 mPa·s
318.15 K, 101.32 kPa, x2 = 0.23 | 0.2923 mPa·s
318.15 K, 101.32 kPa, x2 = 0.319 | 0.3081 mPa·s
318.15 K, 101.32 kPa, x2 = 0.412 | 0.3264 mPa·s
318.15 K, 101.32 kPa, x2 = 0.511 | 0.347 mPa·s
318.15 K, 101.32 kPa, x2 = 0.61 | 0.367 mPa·s
318.15 K, 101.32 kPa, x2 = 0.737 | 0.3916 mPa·s
318.15 K, 101.32 kPa, x2 = 0.863 | 0.4162 mPa·s
323.15 K, 101 kPa, x2 = 0.0929 | 0.2564 mPa·s
323.15 K, 101 kPa, x2 = 0.3674 | 0.3538 mPa·s
323.15 K, 101 kPa, x2 = 0.8102 | 0.4467 mPa·s

c1ccc2ccccc2c1 + ClC(Cl)(Cl)Cl
viscosity [mPa·s], 101 kPa
Conditions | 303.15 K | 308.15 K | 313.15 K | 318.15 K | 323.15 K
x1 = 0.2515 | 1.085 | 1 | 0.9335 | 0.8708 | 0.8138
x1 = 0.4038 | – | – | 1.109 | 1.036 | 0.9672

COc1ccccc1 + ClCCCl
viscosity [mPa·s]
Conditions | 298.15 K | 303.15 K | 308.15 K | 313.15 K
101 kPa, x1 = 0.0971 | 0.8095 | 0.7615 | 0.7135 | 0.6712
101 kPa, x1 = 0.1961 | 0.8125 | 0.7644 | 0.719 | 0.6736
101 kPa, x1 = 0.2958 | 0.8228 | 0.7712 | 0.7246 | 0.6785
101 kPa, x1 = 0.3963 | 0.8354 | 0.7823 | 0.7333 | 0.6881
101 kPa, x1 = 0.4918 | 0.8519 | 0.7983 | 0.7466 | 0.7004
101 kPa, x1 = 0.5946 | 0.8754 | 0.8183 | 0.7639 | 0.715
101 kPa, x1 = 0.6933 | 0.9012 | 0.8399 | 0.7821 | 0.7319
101 kPa, x1 = 0.7944 | 0.9299 | 0.8693 | 0.8076 | 0.7519
101 kPa, x1 = 0.8972 | 0.9672 | 0.8983 | 0.834 | 0.7759
101.3 kPa, x1 = 0.0479 | – | 0.708 | – | –
101.3 kPa, x1 = 0.2944 | – | 0.726 | – | –
101.3 kPa, x1 = 0.3833 | – | 0.74 | – | –
101.3 kPa, x1 = 0.5479 | – | 0.776 | – | –
101.3 kPa, x1 = 0.6192 | – | 0.785 | – | –
101.3 kPa, x1 = 0.6717 | – | 0.797 | – | –
101.3 kPa, x1 = 0.9751 | – | 0.896 | – | –

c1ccc2ccccc2c1 + Clc1ccccc1
viscosity [mPa·s], 101 kPa
Conditions | 308.15 K | 313.15 K | 318.15 K | 323.15 K
x1 = 0.3525 | 0.962 | 0.9041 | 0.8436 | 0.7981
x1 = 0.4003 | 1.011 | 0.945 | 0.887 | 0.832

c1ccc2ccccc2c1 + Nc1ccccc1
viscosity [mPa·s]
Conditions | 308.15 K | 313.15 K | 318.15 K | 323.15 K
101 kPa, x1 = 0.2092 | 2.365 | 2.092 | 1.868 | 1.687
101 kPa, x1 = 0.3036 | 2.224 | 1.988 | 1.783 | 1.616
101.33 kPa, x1 = 0.209 | 2.365 | 2.092 | 1.868 | 1.687
101.33 kPa, x1 = 0.2092 | 2.365 | – | – | –
101.33 kPa, x1 = 0.2497 | 2.291 | – | – | –
101.33 kPa, x1 = 0.3 | 2.224 | 1.988 | 1.783 | 1.616
101.33 kPa, x1 = 0.3036 | 2.224 | – | – | –
